System: hippocampal cells
Assay: Whole-cell patch-clamp recordings of synaptic charge
Assay type: cell-based, rat
Conditions: perfusion of synthetic rat VGF peptide, 0.1 μM
Experimental: To examine the relationship between synaptic response and gene expression, an individual cell's electrophysiological response to BDNF was examined in conjunction with single-cell RT-PCR for Arc. […] Whole-cell patch-clamp recordings from 16 cells verified 0.8- to 4.5-fold increase in synaptic charge following 20 minutes BDNF exposure. […] A group of BDNF-treated cells presenting a minimal synaptic response was apparent. This group was categorized as non-responders (FIG. 1B) and the other cells showing a greater response to BDNF were classified as responders. To determine whether cellular basal activity influences the response to BDNF, the average synaptic charge pre-BDNF of the responders (36±13.1 pC, n=7) versus the non-responders (23.2±6.6 pC, n=9) was compared.
To explore a functional role for VGF in neuromodulation, whole-cell patch-clamp recordings on hippocampal cells were performed in the presence of synthetic VGF peptides. The electrophysiological profile of VGF peptides on hippocampal cells was similar to that observed for BDNF (Levine et al. (1996) supra). […] Enhanced synaptic activity was maintained for up to 25 minutes in the continued presence of Thr-Leu-Gln-Pro-62 (SEQ ID NO:14). […] The effects of both Ala-Gln-Glu-Glu-30 (SEQ ID NO:16) and Thr-Leu-Gln-Pro-62 (SEQ ID NO:14) peptides were dose-dependent, saturating at 0.1 μM.
Whole-cell patch clamp recordings were performed after 10-14 days in culture. Currents were recorded with an Axoclamp 200 amplifier, digitized at 2.5 kHz with an INDEC IDA 15125 interface, filtered at 5 kHz and stored. Recording parameters and stimulus protocols were controlled by custom software written with Borland C++ that utilizes device driver libraries supplied by INDEC. Data analysis programs were written with Microsoft Visual Basic. The. external bath solution for voltage clamp recordings was (in mM) 1.67 CaCl2, 1 MgCl2, 5.36 KCl, 137 NaCl, 17 glucose, 10 HEPES and 20 sucrose (neuron recording solution, NRS). The pipette solution contained (in mM) 105 Cs-methanesulfonate, 17.5 CsCl, 10 HEPES, 0.2 EGTA, 8 NaCl, 2 Mg-ATP, 2 Na-ATP, 0.3 Na-GTP, 20 phosphocreatinine, and 50 U/ml creatinine phosphokinase. All recordings were made at room temperature. The typical range of pipette resistance was 3-5 MΩ. Cell capacitance was 10-20 pF and access resistance was 7-20 MΩ. Vacuum perfusion system contained BDNF (50 ng/ml, Preprotech, Princeton, N.J.), NRS as a control or VGF peptides (0.1 μM=740 ng/ml). Three synthetic rat VGF peptides were used: Leu-Glu-Gly-Ser-28 (SEQ ID NO:15) amino acids 285-312 (amidated), Thr-Leu-Gln-Pro-62 (SEQ ID NO:14) amino acids 556-617 and Ala-Gln-Glu-Glu-30 (SEQ ID NO:16) amino acids 588-617. Each data point represents a cell from a separate dish and at least three different platings were used for each condition.
Data were analyzed by integrating the synaptic currents for each sweep (synaptic charge). The charge measurements for all sweeps in a 1 min period were averaged (binned). Baseline is considered the average synaptic charge during the 2 min period (−2 to 0 min) in NRS immediately prior to BDNF or VGF application. Fold increases were then determined by dividing the synaptic charge during BDNF or VGF exposure by the baseline. Recordings were rejected if either the 0-5 min binned time period or 5-10 min binned time period after switching during BDNF or VGF exposure was 2×SEM below baseline, indicating “run down”.

## Leu-Glu-Gly-Ser-28: synthetic rat VGF peptide, amino acids 285-312 (amidated), N-terminal region
  Effect on synaptic charge: no change in synaptic charge
